Read-outs that look alike come from different tables or passages of the source.
Legend:
[1] = system: MCF7 breast cancer cell line; test: Cell metabolic activity / viability (MTT assay) on MCF7; format: cell-based, human; conditions: for IC50: Homo sapiens, MTT, tested 0 to 500 µM;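 as to all read-outs here: MTT optical density read-out in human MCF7 cells, normalised to DMSO vehicle-treated cells as 100%, with IC50 derived from fitted concentration–response curves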
Method: Human skin fibroblasts (HFF-1, CVCL_3285) and human breast cancer MCF7 (HTB-22™, CVCL_0031) were purchased from ATCC and maintained in Dulbecco’s modified Eagle’s medium (DMEM) high glucose (EuroClone, Milan, Italy) supplemented with 10% of fetal bovine serum (FBS) and 1% of penicillin/streptomycin (Gibco—Thermo Fisher Scientific, MD, USA).
Cell metabolic activity of HFF-1 and MCF7 cells was assessed by MTT (3-(4,5-Dimethylthiazol-2-yl)-2,5-Diphenyltetrazolium Bromide) test (Sigma Aldrich, Milan, Italy). […] After the established exposure times, cells were incubated with MTT (0.5 mg/mL) and the optical density was measured as reported elsewhere [63]. Results were expressed as the percentage of cells in the presence of vehicle (DMSO) set as 100% and each experiment was performed in triplicate (n = 3). Concentration–response curves and IC50 were fitted and calculated with GraphPad Prism 5.0 (GraphPad Software, San Diego, CA, USA).

human aromatase = target: T1, human aromatase (Homo sapiens, UniProt P11511); test: Aromatase inhibition, fluorimetric assay kit (Aromatase-CYP19A Inhibitor Screening kit, BioVision); format: biochemical; conditions: for IC50: tested at concentrations from 0.01 to 100 μM, mean of triplicate determinations
T1 construct: purchased BioVision, Milpitas, CA, USA
T1 sequence (P11511 1-503): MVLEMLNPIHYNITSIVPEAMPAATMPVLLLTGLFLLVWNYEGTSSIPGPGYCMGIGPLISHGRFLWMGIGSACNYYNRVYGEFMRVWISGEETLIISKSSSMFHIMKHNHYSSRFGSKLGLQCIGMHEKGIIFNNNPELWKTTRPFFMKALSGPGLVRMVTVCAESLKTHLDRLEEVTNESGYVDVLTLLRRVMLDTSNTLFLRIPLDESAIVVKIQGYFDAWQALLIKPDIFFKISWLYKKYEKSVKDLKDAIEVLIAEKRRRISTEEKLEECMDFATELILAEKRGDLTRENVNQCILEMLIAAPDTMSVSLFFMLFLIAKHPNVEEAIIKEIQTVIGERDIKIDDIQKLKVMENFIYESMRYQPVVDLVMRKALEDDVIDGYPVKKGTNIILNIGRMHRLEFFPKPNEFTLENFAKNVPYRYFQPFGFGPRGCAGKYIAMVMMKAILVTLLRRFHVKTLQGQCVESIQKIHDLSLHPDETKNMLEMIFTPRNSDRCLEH
Method: The activity was measured each minute for 60 min and the value obtained for each compound after 10 min was chosen to calculate the percentage of the aromatase inhibition.
The aromatase inhibitory activity was determined using a commercial fluorimetric assay kit (Aromatase-CYP19A Inhibitor Screening kit, BioVision, Milpitas, CA, USA), as reported elsewhere. The assay utilizes a fluorogenic aromatase substrate that is converted into a highly fluorescent metabolite detected in the visible range (Ex/Em 488/527 nm). […] During the incubation, the Aromatase Substrate/NADP+ mixture was prepared, and the reaction was started by adding 30 µL of this solution to each well (aside from the background control), reaching a final reaction volume of 100 µL/well. The fluorescence emission (527 nm) was measured immediately (within 1 min) by means of a fluorometer equipped with a 488 nm filter (GloMax®-Multi Detection System, Promega, Madison, WI, USA) and afterwards monitored for 60 min. […] The assay was performed in the same experimental conditions used for the initial screening of compounds. Dose–response curves were fitted with GraphPad Prism 5.0 (GraphPad Software, San Diego, CA, USA).

MCF7 cells = test: Cytotoxicity test (lactate dehydrogenase release); format: cell-based, human; conditions: MCF7, 0–250 µM, 24 h
Method: To assess whether the decrease in metabolic activity is a consequence of cytotoxic occurrence in the presence of compounds 1b, 1c, and 1j, lactate dehydrogenase (LDH) released from MCF7 was measured in response to loading concentrations of 0–250 µM after a 24 h exposure. […] It is, therefore, plausible to assume that all tested compounds exert their anti-proliferative effect on MCF7 cells through cytotoxic induction and 1c is the most promising compound, being active already at lower doses.
MCF7 cells were seeded and stimulated as previously described for the MTT test. After the exposure time, cell supernatants were collected, centrifuged at 450× g for 4 min, and stored on ice. In order to quantify the cytotoxicity of loading concentrations of compounds 1b, 1c, and 1j (0–250 µM), the CytoTox 96® Non-Radioactive Cytotoxicity Assay (Promega Corporation, Madison, WI, USA) was performed as previously reported. The results were normalized on MTT absorbances and expressed as fold increases on the LDH released by cultures in the presence of vehicle (DMSO) set as 1.

[2] = Chemical stability by RP-nano-LC at 37 °C; format: physicochemical; conditions: 72 h, 100 µg/mL; for Chemical stability, basic conditions: 0.1 mM sodium hydroxide solution pH 9, 37 °C; for Chemical stability, acidic conditions: 10 mM hydrochloric acid buffer pH 2.0, 37 °C
Source text: The results were compared with corresponding sulfonamides 2b–c and 2j. […] Advantages including low consumption of mobile and stationary phases and minimal sample volumes make this analytical tool more cost-effective and eco-friendlier with respect to the conventional HPLC. In addition, the reduction in particle diameter and the use of short chromatographic capillary column allow rapid analyses in isocratic elution mode.
Due to the low solubility of some compounds in pure water, the study was performed in an aqueous solution containing ACN/H2O as mobile phase. These conditions led to the chromatographic separation of each compound within 6 min. […] The analyses were performed with a nano-LC apparatus at appropriate intervals for 72 h, maintaining the prepared samples at a temperature of 37 °C.
Detection wavelength was set at 206 nm, and data were collected using ClarityTM Advanced Chromatography Software (Data Apex Ltd., Prague, Czech Republic).
To reduce the flow rate from µ- to nL/min, the HPLC pump delivering MeOH continuously and the injector were connected to a passive split-flow system. For this purpose, both the HPLC pump and injection valve were joined to a stainless-steel T-piece (Vici, Valco, Houston, TX, USA) by means of 500 µm id stainless steel tubes with lengths of 50 and 5 cm, respectively. The third entrance of the T-piece was connected to the MeOH reservoir of the pump through a fused silica capillary (50 µm id × 50 cm), achieving continuous recycling of the organic solvent. To minimize the dead volume and consequently reduce the band broadening effect, the capillary column was directly inserted into the modified injector, which was used for both sample loading and mobile phase reservoir. Samples and mobile phases were introduced into the capillary column through the injection valve by filling the loop with the sample solutions, switching the valve for the appropriate time, and then flushing the loop with the mobile phase. The analysis started immediately after positioning the injector device in the injection mode. […] In the optimized conditions, the flow rate of the column was about 450 nL/min. Nano-LC experiments were performed in uncoated fused silica capillaries (100 μm internal diameter) from Composite Metal Services, Hallow, UK), packed in our laboratory following the slurry packing procedure as described previously. The capillary column was packed with ChromSpher C18, 3 μm particle size (Varian, Palo Alto, CA, USA) for 15 cm.
Chromatographic conditions and standards preparation were as follows: the nano-LC analyses were performed in the capillary column employing as mobile phase a mixture of ACN/H2O ([…]) containing a 10 mM sodium hydrocarbonate buffer, pH 8.5. […]

[3] = MCF7, 24 h, 24 h, read-out: MCF7 Cells IC50 24 h
[4] = MCF7, 72 h, 72 h, read-out: MCF7 Cells IC50 72 h

melting point [°C]	SMILES	IC50 [1, 3] [µM]	IC50 [1, 4] [µM]	Viability (% of control) - 24 h ([1]; MCF7, 10 µM, 24 h)	Viability (% of control) - 72 h ([1]; MCF7, 10 µM, 72 h)	Viability (% of control) - 24 h ([1]; MCF7, 25 µM, 24 h)	Viability (% of control) - 72 h ([1]; MCF7, 25 µM, 72 h)	Viability (% of control) - 24 h ([1]; MCF7, 50 µM, 24 h)	Viability (% of control) - 72 h ([1]; MCF7, 50 µM, 72 h)	Viability (% of control) - 24 h ([1]; MCF7, 100 µM, 24 h)	Viability (% of control) - 72 h ([1]; MCF7, 100 µM, 72 h)	Viability (% of control) - 24 h ([1]; MCF7, 250 µM, 24 h)	Viability (% of control) - 72 h ([1]; MCF7, 250 µM, 72 h)	Viability (% of control) - 24 h ([1]; MCF7, 500 µM, 24 h)	Viability (% of control) - 72 h ([1]; MCF7, 500 µM, 72 h)	inhibition at 1 µM (human aromatase) [%]	IC50 (human aromatase) [nM]	Chemical stability, basic conditions [2]	Chemical stability, acidic conditions [2]	further results
152 to 155	O=[N+]([O-])c1cccc(S(=O)(=O)Oc2ccc(/C=C/c3ccccc3)cc2)c1 [1b, 4-[(E)-2-Phenylvinyl]phenyl 3-nitrobenzenesulfonate]	159 ± 9.9	240 ± 6.7	69.32 ± 14.99 % of control	98.33 ± 5.24 % of control	79.12 ± 9.66 % of control	99.99 ± 9.30 % of control	80.69 ± 4.08 % of control	93.39 ± 5.39 % of control	73.93 ± 1.87 % of control	77.31 ± 7.02 % of control	45.57 ± 3.42 % of control	57.01 ± 1.01 % of control	35.83 ± 2.22 % of control	36.11 ± 0.35 % of control	97	2510	–	–	LDH release, dose dependence (in words) (MCF7 cells): raises only at the highest concentration administered (250 µM)
–	O=S(=O)(Cc1ccccc1)Oc1ccc(/C=C/c2ccccc2)cc1 [1j, 4-[(E)-2-Phenylvinyl]phenyl phenylmethanesulfonate]	> 250	> 250	85.47 ± 6.41 % of control	96.53 ± 7.12 % of control	86.33 ± 14.64 % of control	95.30 ± 7.88 % of control	70.06 ± 3.80 % of control	87.57 ± 5.26 % of control	74.91 ± 9.24 % of control	72.67 ± 3.46 % of control	51.84 ± 3.08 % of control	69.54 ± 4.11 % of control	38.88 ± 5.23 % of control	46.31 ± 4.73 % of control	100	2210	highly degraded because of their precipitation in the basic solution	stable over the entire range of time	–
–	O=S(=O)(Cc1ccccc1)Nc1ccc(/C=C/c2ccccc2)cc1 [2j, 1-Phenyl-N-{4-[(E)-2-phenylvinyl]phenyl}methanesulfonamide]	–	–	–	–	–	–	–	–	–	–	–	–	–	–	–	–	highly degraded because of their precipitation in the basic solution	stable over the entire range of time	–
200 to 202	O=S(=O)(Nc1ccc(/C=C/c2ccccc2)cc1)c1ccc(Cl)s1 [2k, 5-Chloro-N-{4-[(E)-2-phenylvinyl]phenyl}thiophene-2-sulfonamide]	–	–	–	–	–	–	–	–	–	–	–	–	–	–	–	–	–	–	Aromatase inhibition (in words) (human aromatase; screening at 1 µM): inactive
